Test results: ChEMBL document CHEMBL4007491, “Structure-based drug design of novel ASK1 inhibitors using an integrated lead optimization strategy” (Bioorg Med Chem Lett, 2017)

What was measured:
[1] = biological target: T1, Mitogen-activated protein kinase kinase kinase 5 (Homo sapiens, UniProt Q99683); assay: Inhibition of ASK1 (unknown origin) assessed as reduction in JNK phosphorylation by cell based assay
T1 sequence (Q99683 whole entry): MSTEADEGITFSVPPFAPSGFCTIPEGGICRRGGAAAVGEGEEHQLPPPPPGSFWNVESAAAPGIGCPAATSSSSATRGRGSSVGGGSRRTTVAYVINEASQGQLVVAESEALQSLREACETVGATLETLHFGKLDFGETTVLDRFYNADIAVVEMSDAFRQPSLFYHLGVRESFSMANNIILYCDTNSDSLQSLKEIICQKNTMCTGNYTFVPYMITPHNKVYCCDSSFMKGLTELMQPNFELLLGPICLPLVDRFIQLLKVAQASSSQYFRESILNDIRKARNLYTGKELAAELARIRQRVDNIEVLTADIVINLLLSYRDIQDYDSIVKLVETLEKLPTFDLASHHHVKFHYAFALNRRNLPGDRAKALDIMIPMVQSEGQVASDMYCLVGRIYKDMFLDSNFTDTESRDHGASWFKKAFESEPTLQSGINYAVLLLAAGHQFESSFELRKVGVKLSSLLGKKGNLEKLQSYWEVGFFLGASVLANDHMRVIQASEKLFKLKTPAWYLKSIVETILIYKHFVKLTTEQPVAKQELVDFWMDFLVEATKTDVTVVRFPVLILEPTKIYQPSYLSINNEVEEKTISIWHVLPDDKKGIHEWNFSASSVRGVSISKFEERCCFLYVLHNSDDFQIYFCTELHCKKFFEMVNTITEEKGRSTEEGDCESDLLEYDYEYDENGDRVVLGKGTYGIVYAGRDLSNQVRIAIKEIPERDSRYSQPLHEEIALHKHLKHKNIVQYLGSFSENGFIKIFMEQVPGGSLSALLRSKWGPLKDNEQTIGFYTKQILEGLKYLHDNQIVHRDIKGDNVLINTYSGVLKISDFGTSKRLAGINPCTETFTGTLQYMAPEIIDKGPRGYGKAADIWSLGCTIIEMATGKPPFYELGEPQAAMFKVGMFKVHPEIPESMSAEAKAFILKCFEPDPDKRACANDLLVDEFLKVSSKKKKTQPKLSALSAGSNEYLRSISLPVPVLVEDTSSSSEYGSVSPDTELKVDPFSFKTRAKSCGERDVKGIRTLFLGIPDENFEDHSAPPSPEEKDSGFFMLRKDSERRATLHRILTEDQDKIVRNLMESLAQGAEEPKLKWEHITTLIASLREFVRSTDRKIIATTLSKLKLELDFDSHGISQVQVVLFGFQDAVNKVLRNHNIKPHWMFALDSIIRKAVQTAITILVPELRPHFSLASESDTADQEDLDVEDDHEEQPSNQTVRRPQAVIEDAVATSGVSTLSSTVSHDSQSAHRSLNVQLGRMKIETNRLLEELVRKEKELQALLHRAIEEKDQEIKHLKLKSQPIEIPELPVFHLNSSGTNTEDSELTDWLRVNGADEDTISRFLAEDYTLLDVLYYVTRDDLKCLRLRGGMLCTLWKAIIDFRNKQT

[2] = biological target: T1, Mitogen-activated protein kinase kinase kinase 5; assay: Inhibition of ASK1 (unknown origin) using biotin-MBP as substrate after 20 mins by TR-FRET assay
[3] = biological target: T2, Mitogen-activated protein kinase kinase kinase 5 (Homo sapiens) (UniProt Q99683); assay: Inhibition of ASK1 (unknown origin) at 500 uM using biotin-MBP as substrate after 20 mins by TR-FRET assay relative to control
T2 sequence (whole entry): T1 sequence (Q99683 whole entry)

[4] = biological target: Cyclin-dependent kinase 2 (Homo sapiens, UniProt P24941); assay: Inhibition of CDK2 (unknown origin)
[5] = biological target: Epidermal growth factor receptor (Homo sapiens, UniProt P00533); assay: Inhibition of recombinant human GST-tagged EGFR cytoplasmic domain (668 to 1210 residues) expressed in baculovirus expression system
Ephrin type-A receptor 3 = biological target: T3, Ephrin type-A receptor 3 (Homo sapiens, UniProt P29320); assay: Inhibition of recombinant human His-tagged EPHA3 cytoplasmic domain (569 to 976 residues) expressed in baculovirus expression system
T3 sequence (P29320 whole entry): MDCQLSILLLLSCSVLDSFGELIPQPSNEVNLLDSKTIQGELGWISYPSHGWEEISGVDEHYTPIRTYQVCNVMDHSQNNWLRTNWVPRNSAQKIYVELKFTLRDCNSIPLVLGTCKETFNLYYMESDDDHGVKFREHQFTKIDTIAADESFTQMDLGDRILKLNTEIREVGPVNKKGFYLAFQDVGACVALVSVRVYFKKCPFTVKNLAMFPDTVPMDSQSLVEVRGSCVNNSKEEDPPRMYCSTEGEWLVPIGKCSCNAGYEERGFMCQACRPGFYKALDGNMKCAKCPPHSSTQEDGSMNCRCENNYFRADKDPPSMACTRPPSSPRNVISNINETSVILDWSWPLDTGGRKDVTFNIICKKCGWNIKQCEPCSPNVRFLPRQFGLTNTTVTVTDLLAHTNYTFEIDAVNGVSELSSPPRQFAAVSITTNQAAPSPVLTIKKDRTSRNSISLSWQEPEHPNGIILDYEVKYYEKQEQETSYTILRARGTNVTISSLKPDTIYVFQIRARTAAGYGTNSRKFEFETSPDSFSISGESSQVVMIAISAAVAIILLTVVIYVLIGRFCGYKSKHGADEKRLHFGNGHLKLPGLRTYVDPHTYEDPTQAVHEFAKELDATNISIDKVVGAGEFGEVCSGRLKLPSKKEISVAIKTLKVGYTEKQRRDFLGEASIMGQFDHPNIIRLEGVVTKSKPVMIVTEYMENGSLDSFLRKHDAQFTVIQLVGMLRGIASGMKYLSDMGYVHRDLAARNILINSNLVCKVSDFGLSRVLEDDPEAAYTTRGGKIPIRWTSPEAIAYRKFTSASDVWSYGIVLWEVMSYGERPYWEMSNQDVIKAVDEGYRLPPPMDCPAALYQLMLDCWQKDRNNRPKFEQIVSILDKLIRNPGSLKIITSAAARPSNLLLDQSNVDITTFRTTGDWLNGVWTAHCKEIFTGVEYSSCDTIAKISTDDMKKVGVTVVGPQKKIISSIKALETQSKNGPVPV

[6] = biological target: Receptor tyrosine-protein kinase erbB-4 (Homo sapiens, UniProt Q15303); assay: Inhibition of recombinant human N-terminal GST-tagged ERBB4 cytoplasmic domain (708 to 993 residues) expressed in baculovirus expression system
[7] = biological target: Glycogen synthase kinase-3 beta (Homo sapiens, UniProt P49841); assay: Inhibition of recombinant full length human His-tagged GSK3B expressed in baculovirus expression system
[8] = biological target: T4, Tyrosine-protein kinase ITK/TSK (Homo sapiens, UniProt Q08881); assay: Inhibition of recombinant full length human GST-tagged ITK expressed in baculovirus expression system
T4 sequence (Q08881 whole entry): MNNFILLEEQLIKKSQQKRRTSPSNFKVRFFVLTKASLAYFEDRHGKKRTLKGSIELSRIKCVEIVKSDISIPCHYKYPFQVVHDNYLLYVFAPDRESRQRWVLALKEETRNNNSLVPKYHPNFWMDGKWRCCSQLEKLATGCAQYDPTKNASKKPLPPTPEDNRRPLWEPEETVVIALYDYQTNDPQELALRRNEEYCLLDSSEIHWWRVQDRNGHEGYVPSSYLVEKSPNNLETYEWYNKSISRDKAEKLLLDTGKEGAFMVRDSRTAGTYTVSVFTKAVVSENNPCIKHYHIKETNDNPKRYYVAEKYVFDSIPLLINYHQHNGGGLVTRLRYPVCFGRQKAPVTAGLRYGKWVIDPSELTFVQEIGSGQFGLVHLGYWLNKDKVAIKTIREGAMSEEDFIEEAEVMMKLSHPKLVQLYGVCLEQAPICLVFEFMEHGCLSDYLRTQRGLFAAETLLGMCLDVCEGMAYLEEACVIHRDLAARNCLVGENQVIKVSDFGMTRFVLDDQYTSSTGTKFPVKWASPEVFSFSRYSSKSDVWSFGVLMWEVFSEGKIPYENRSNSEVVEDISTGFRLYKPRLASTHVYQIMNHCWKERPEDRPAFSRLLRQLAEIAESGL

[9] = biological target: T5, Tyrosine-protein kinase Mer (Homo sapiens, UniProt Q12866); assay: Inhibition of recombinant human GST-tagged MER cytoplasmic domain expressed in baculovirus expression system
T5 sequence (Q12866 whole entry): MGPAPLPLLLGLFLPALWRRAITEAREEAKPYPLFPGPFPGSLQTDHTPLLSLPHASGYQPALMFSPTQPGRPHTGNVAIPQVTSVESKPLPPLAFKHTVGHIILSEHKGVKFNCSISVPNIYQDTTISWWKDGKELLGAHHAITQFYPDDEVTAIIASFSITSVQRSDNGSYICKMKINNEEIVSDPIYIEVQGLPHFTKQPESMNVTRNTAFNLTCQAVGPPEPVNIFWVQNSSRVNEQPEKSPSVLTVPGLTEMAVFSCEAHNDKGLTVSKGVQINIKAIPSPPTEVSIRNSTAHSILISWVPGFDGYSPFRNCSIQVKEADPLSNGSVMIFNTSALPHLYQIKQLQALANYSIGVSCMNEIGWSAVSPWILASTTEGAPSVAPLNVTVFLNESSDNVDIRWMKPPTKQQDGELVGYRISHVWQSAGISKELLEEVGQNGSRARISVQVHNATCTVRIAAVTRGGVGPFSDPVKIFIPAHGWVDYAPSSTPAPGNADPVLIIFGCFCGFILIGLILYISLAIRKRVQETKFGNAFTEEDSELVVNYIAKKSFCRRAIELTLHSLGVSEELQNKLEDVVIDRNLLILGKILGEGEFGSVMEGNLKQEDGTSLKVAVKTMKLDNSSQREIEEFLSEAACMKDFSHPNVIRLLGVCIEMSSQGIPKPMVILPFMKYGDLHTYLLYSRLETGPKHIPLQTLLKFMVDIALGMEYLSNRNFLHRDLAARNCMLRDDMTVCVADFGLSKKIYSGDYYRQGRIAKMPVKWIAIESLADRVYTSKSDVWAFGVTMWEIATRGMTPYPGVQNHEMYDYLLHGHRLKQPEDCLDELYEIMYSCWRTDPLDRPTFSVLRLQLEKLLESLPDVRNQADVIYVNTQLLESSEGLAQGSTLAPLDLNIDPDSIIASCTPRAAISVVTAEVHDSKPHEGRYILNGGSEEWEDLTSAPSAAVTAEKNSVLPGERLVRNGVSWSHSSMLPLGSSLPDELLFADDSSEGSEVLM

MAP kinase p38 = MAP kinase p38 (Homo sapiens, UniProt O15264+Q15759+Q16539+P53778); assay: Inhibition of MAPK p38 (unknown origin)
[10] = biological target: 5'-AMP-activated protein kinase catalytic subunit alpha-1 (Homo sapiens, UniProt Q13131); assay: Inhibition of PRKAA1 (unknown origin)
[11] = biological target: Proto-oncogene tyrosine-protein kinase receptor Ret (Homo sapiens, UniProt P07949); assay: Inhibition of recombinant human GST-tagged RET cytoplasmic domain expressed in baculovirus expression system
[12] = biological target: Rho-associated protein kinase 1 (Homo sapiens, UniProt Q13464); assay: Inhibition of recombinant human GST-tagged ROCK1 catalytic domain expressed in baculovirus expression system
[13] = biological target: Macrophage-stimulating protein receptor (Homo sapiens, UniProt Q04912); assay: Inhibition of recombinant human GST-tagged RON cytoplasmic domain expressed in baculovirus expression system
Chain of Macrophage-stimulating protein receptor (Q04912 25-304 limits assumed): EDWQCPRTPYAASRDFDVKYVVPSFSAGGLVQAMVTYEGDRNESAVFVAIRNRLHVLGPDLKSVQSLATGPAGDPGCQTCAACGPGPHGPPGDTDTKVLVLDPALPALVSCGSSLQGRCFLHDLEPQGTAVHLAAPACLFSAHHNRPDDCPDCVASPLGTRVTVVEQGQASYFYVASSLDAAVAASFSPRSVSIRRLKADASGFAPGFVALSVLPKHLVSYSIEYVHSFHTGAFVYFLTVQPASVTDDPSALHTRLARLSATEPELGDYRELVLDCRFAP
Chain of Macrophage-stimulating protein receptor (Q04912 310-1400 limits assumed): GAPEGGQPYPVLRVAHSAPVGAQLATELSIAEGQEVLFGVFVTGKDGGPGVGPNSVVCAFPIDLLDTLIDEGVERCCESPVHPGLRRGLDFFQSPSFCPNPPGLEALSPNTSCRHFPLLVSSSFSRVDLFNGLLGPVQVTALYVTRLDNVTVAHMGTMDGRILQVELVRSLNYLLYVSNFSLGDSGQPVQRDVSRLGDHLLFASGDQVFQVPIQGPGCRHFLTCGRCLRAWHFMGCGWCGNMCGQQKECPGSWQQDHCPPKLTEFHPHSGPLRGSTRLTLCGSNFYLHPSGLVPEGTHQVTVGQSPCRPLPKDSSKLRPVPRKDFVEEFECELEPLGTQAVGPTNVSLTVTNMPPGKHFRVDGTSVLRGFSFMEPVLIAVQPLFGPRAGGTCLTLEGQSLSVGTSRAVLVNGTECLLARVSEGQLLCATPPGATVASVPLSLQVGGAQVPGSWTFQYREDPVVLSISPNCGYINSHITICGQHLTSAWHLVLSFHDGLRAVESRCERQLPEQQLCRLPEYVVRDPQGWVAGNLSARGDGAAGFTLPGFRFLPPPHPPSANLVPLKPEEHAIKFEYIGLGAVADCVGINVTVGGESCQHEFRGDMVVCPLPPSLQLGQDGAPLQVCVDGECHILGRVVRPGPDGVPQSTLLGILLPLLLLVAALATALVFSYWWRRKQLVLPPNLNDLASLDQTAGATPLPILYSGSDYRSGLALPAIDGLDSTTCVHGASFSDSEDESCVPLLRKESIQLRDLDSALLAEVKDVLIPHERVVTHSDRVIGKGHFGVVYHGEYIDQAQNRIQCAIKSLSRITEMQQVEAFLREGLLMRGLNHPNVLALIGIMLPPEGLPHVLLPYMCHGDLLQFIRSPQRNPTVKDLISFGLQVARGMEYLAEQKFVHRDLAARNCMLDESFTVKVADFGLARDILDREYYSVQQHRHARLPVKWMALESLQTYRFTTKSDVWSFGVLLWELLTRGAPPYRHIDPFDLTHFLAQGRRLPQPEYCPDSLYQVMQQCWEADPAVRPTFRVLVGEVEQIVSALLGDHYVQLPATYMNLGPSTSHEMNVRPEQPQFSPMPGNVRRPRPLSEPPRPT

Chain of Glycogen synthase kinase-3 beta (P49841 whole entry): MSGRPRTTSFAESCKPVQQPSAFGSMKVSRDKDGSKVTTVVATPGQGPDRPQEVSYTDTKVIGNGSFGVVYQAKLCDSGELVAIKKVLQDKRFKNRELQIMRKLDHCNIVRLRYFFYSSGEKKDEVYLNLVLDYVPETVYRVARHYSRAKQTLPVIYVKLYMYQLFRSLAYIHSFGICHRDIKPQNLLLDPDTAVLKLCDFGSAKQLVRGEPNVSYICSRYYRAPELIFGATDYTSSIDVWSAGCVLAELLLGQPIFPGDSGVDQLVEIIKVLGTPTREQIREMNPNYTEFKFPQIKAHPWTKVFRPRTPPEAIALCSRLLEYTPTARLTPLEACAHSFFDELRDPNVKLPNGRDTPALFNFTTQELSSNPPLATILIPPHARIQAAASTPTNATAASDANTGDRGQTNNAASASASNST
Chain of Rho-associated protein kinase 1 (Q13464 whole entry, the tested form may be a part): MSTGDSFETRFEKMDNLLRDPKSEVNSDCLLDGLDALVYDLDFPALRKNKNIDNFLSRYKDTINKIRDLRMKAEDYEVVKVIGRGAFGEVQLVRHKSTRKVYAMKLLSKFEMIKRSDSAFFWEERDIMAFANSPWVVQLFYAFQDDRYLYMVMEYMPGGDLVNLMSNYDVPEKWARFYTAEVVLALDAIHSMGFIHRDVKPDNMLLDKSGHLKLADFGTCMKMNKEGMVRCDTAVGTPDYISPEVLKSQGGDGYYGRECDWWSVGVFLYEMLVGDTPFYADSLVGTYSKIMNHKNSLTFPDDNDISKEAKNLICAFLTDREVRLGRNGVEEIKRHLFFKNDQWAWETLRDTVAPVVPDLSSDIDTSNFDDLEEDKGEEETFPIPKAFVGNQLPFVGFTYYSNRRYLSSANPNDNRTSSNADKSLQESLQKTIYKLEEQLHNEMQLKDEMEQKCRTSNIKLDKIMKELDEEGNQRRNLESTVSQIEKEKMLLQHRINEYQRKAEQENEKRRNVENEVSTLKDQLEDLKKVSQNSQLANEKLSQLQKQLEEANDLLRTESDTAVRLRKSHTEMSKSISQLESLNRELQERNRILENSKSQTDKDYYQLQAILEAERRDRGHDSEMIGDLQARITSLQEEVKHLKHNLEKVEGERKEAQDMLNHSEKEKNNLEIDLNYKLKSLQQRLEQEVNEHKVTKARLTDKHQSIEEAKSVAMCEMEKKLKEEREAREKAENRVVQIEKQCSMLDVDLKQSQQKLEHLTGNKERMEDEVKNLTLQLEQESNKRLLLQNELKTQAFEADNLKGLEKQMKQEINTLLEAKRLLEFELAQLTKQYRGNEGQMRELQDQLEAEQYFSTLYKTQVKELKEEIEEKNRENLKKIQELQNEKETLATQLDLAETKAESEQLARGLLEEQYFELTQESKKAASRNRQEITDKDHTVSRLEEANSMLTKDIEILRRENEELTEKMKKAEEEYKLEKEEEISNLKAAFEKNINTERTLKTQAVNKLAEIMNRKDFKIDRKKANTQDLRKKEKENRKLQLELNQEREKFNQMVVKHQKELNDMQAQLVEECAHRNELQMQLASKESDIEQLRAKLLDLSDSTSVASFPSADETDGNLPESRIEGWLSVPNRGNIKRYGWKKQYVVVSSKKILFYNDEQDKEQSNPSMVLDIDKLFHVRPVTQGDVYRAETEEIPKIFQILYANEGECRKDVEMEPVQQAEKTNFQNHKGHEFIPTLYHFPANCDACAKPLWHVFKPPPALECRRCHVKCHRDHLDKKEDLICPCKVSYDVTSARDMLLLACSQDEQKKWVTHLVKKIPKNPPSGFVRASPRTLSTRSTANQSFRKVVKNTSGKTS
Chain of Receptor tyrosine-protein kinase erbB-4 (Q15303 whole entry, the tested form may be a part): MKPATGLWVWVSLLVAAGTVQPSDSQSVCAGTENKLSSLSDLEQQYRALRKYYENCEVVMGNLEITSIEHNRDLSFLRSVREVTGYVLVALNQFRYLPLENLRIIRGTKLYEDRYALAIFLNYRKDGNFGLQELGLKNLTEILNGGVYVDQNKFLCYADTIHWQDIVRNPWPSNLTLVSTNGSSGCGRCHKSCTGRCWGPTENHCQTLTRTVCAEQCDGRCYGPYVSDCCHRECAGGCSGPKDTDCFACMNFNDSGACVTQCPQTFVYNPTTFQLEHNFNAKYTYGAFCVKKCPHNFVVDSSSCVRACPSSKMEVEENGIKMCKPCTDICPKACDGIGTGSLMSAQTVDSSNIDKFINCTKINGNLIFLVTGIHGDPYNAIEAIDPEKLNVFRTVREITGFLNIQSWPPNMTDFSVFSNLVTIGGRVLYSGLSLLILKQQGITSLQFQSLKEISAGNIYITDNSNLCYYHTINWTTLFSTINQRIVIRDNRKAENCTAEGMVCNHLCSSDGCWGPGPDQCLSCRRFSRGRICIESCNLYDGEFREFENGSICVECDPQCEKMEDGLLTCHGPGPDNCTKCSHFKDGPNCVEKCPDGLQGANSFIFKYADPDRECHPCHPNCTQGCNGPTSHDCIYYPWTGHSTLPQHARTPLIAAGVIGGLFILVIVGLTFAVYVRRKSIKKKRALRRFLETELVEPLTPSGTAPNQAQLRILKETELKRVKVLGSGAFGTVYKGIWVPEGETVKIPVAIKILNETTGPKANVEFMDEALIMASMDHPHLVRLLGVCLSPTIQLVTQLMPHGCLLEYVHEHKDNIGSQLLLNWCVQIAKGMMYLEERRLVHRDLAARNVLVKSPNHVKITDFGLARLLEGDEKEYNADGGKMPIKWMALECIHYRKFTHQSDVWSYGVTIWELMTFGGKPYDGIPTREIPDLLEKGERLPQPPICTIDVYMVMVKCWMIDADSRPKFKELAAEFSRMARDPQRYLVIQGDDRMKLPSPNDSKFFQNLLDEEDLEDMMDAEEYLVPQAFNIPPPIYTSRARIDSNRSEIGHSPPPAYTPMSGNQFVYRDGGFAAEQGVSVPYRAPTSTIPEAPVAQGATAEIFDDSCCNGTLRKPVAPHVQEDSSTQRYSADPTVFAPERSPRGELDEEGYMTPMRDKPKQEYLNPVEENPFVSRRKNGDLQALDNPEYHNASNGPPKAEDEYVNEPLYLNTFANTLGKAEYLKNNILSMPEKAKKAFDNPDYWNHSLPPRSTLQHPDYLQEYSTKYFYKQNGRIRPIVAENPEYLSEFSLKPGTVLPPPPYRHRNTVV
Chain of 5'-AMP-activated protein kinase catalytic subunit alpha-1 (Q13131 whole entry, the tested form may be a part): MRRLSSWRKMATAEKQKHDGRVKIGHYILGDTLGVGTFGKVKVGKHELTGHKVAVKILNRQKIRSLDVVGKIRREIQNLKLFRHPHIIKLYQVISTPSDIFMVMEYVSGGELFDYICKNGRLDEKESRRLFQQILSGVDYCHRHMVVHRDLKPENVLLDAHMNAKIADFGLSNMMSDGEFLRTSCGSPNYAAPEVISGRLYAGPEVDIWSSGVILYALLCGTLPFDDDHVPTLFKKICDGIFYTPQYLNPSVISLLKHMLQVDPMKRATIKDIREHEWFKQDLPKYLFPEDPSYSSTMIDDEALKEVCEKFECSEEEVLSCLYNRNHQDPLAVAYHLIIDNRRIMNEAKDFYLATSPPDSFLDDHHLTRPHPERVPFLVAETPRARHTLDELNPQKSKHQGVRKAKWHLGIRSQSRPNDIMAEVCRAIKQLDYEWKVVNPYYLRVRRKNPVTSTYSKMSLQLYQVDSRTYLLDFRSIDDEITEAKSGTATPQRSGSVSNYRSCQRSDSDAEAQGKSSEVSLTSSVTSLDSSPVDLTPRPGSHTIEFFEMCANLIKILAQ

EC50 [1] [µM]	IC50 [2] [µM]	inhibition [3] [%]	SMILES	further results
0.065	–	–	COCCCn1cc(NC(=O)c2csc(-c3nncn3C(C)C)n2)cn1	–
–	0.055	–	Cc1ccc(C(=O)Nc2cccc(-c3nncn3C(C)C)n2)c(F)c1	–
–	–	< 10	CCn1cnc(NC(=O)C2CCC2)c1	–
–	–	35	CCn1cnc(NC(=O)c2ccco2)c1	–
–	500	51	CCn1cnc(NC(=O)c2ccoc2)c1	–
0.6	0.6	–	CCn1cc(NC(=O)c2csc(-c3nncn3C(C)C)n2)cn1	–
–	–	40	CCn1cnc(NC(=O)c2ccccc2)c1	–
–	0.4	–	CC(C)n1cnnc1-c1nc(C(=O)Nc2ccccn2)cs1	–
–	–	–	CC(C)(C)c1ccc(C(=O)Nc2cn3cc(-n4ccnc4)ccc3n2)cc1	IC50 [4]: 0.155 µM; IC50 [5]: > 20 µM; IC50 (Ephrin type-A receptor 3): > 20 µM; IC50 [6]: > 20 µM; IC50 [7]: 0.832 µM; IC50 [8]: 5.5 µM; IC50 [9]: 6.46 µM; pIC50 (MAP kinase p38): < 4.7; IC50 [10]: 13.8 µM; IC50 [11]: 11.5 µM; IC50 [12]: 4.9 µM; IC50 [13]: > 20 µM
0.099	–	–	COCCNc1ccnc(NC(=O)c2csc(-c3nncn3C(C)C)n2)c1	–
–	6	–	Cc1cc(F)c(C(=O)Nc2ccccn2)cc1-n1cnc(C2CC2)c1	–
0.14	–	–	COCCOc1ccnc(NC(=O)c2csc(-c3nncn3C(C)C)n2)c1	–
0.13	–	–	CC(C)n1cnnc1-c1nc(C(=O)Nc2cnn(C3COC3)c2)cs1	–
–	100	75	CCn1cnc(NC(=O)c2cscn2)c1	–
